According to patent US20090176950A1, “METAL HYDRIDE COMPLEX, METHOD OF HYD[…]-OPENING POLY[…] OF CYCLOOLEFIN, AND PROCESS FOR PRODUCING PRODUCT OF HYD[…] RING-OPENING POLY[…] OF CYCLOOLEFIN” (JSR CORPORATION, priority 2005, published 2009):

Columns and labels:
[1] = solubility of the metal hydride complex to toluene; format: physicochemical
[2] = hydrogenation of ring-opening polymer with the complex as hydrogenation catalyst (Example 4 procedure); details: 0.06 parts complex per 1000 parts polymer solution, hydrogen 100 kg/cm^2, 165° C., 3 hours, 1H-NMR
Experimental: Into a reaction vessel substituted with nitrogen were charged 250 parts of 8-methyl-8-methoxycarbonyltetracyclo[4.4.0.1^2,5.1^7,10]-3-dodecene, 18 parts of 1-hexene (molecular weight adjusting agent) and 750 parts of toluene and the resulting solution was heated to 80° C. Thereafter, to the solution in the reaction vessel were added 0.62 parts of a toluene solution of triethylaluminum (1.5 mol/L) as a polymerization catalyst and 3.7 parts of a toluene solution (concentration: 0.05 mol/L) of tungsten hexachloride modified with t-butanol and methanol (t-butanol:methanol:tungsten=0.35 mol:0.3 mol:1 mol). The ring-opening copolymerization reaction was carried out by heating and stirring this system at 80° C. for 3 hours to obtain a ring-opening metathesis polymer solution of 8-methyl-8-methoxycarbonyltetracyclo[4.4.0.1^2,5.1^7,10]-3-dodecene. The polymerization conversion rate in this polymerization reaction was 97%.
Into an autoclave was charged 1000 parts of the ring-opening polymer solution obtained above and to this solution was added as a hydrogenation catalyst a toluene solution of 0.5% by weight of the ruthenium hydride complex obtained in Example 1 in an amount (12 parts) so that the amount of added complex was 0.06 parts. The hydrogenation reaction was carried out by heating and stirring for 3 hours under the conditions of a hydrogen gas pressure of 100 kg/cm^2 and a reaction temperature of 165° C. The resulting reaction solution (hydrogenated polymer solution) was cooled and then the hydrogen gas was released. This reaction solution was poured into a large amount of methanol to separate and collect a coagulated substances which was dried to obtain a hydrogenated polymer.

[3] = hydrogenation of ring-opening copolymer with the complex as catalyst (Example 7); details: 0.06 parts complex, hydrogen 100 kg/cm^2, 165° C., 3 hours
From the text: A ring-opening polymer solution was obtained by carrying out the same polymerization operations as those in Example 4 except that 187.5 parts of 8-methyl-8-methoxycarbonyltetracyclo[4.4.0.1^2,5.1^7,10]-3-dodecene and 62.5 parts of tricyclo[4.3.0.1^2,5]deca-3,8-diene were used in place of 250 parts of 8-methyl-8-methoxycarbonyltetracyclo[4.4.0.1^2,5.1^7,10]-3-dodecene. The polymerization conversion rate of this polymerization reaction was 98%.
(§1) Into an autoclave was charged 1000 parts of the ring-opening copolymer solution thus obtained and to the ring-opening copolymer solution was added a toluene solution of 1.0% by weight of the ruthenium hydride complex obtained in Example 2 in an amount (6 parts) so that the amount of added complex was 0.06 parts. The hydrogenation reaction was carried out by heating and stirring for 3 hours under the conditions including a hydrogen gas pressure of 100 kg/cm^2 and a reaction temperature of 165° C. The resulting reaction solution (hydrogenated polymer solution) was cooled and then the hydrogen gas was released. […] This polymer was analyzed by ^1H-NMR and the hydrogenation rate was determined by the ratio of the integral value of the saturated hydrocarbons at 0.6 to 2.5 ppm to the integral value of the unsaturated hydrocarbons at 5.0 to 5.6 ppm.

[4] = hydrogenation of ring-opening copolymer with the complex as catalyst (Example 8); details: 0.06 parts complex, hydrogen 100 kg/cm^2, 165° C., 3 hours
From the text: A ring-opening copolymer solution was obtained by carrying out the same polymerization operations as those in Example 4 except that 190 parts of 8-methyl-8-methoxycarbonyltetracyclo[4.4.0.1^2,5.1^7,10]-3-dodecene and 60 parts of spiro[fluorene-9,8′-tricyclo[4.3.0.1^2,5]dec-3-ene were used in place of 250 parts of 8-methyl-8-methoxycarbonyltetracyclo[4.4.0.1^2,5.1^7,10]-3-dodecene. The polymerization conversion rate in this polymerization reaction was 96%.
as §1, with “the ring-opening polymer solution was” for “the ring-opening copolymer solution was”, “the conditions of a hydrogen” for “the conditions including a hydrogen”

[5] = autoclave hydrogenation of DNM/DCP polymer (Example 9 procedure)
Experimental: (§2) ^1H-NMR was measured by using AVANCE500 manufactured by BRUKER as a nuclear magnetic resonance spectrometer (NMR) with chloroform-d as a measuring solvent. The composition of a monomer was calculated from the integral value of the vinylene group at 5.1 to 5.8 ppm, the methoxy group at 3.7 ppm and the aliphatic proton at 0.6 to 2.8 ppm, and then the hydrogenation rate was calculated.
Into a reaction vessel substituted with nitrogen were charged 75 parts by weight of 8-methoxycarbonyl-8-methyltetracyclo[4.4.0.1^2,5.1^7,10]-3-dodecene (DNM) and 25 parts by weight of dicyclopentadiene (DCP) as monomers, 6 parts by weight of 1-butene as a molecular weight adjusting agent and 170 parts by weight of toluene, and the resultant mixture was heated to 100° C. To this mixture were added 0.005 parts by weight of triethylaluminum, 0.005 parts by weight of methanol-modified WCl6 (anhydrous methanol:PhPOCl2:WCl6=103:630:427 (weight ratio)), and the reaction was carried out at 100° C. for one hour to obtain a polymer. The conversion was 100%.
Next, into a pressure-proof autoclave with a design temperature of 185° C. and a capacity of 1.25 m^3 were charged a solution of the polymer obtained above equivalent to 350 kg of the solid component and as a hydrogenation catalyst 0.0335 parts by weight of RuH(CO)[P(C6H5)]2(OCO-p-Ph-n-C5H13) of which saturation solubility to toluene at 25° C. is 5% by weight based on 100 parts by weight equivalent to the polymer solid component conversion, and the autoclave was heated to 100° C. Then, hydrogen gas was introduced to the autoclave to increase the pressure to 10 MPa. The maximum attained temperature during the hydrogenation reaction was 179° C. The theoretical value of generated heat was calculated from DNM=129.3 kcal/kg and DCP=452.3 kcal/kg. Thereafter, the reaction was carried out at 165° C. for 3 hours while maintaining the pressure at 10 MPa to obtain a hydrogenated product. […]

[6] = autoclave hydrogenation of DNM/DCP/NB polymer (Example 10 procedure); details: gelation inhibitor
Experimental: as §2
A hydrogenated product was obtained in the same way as Example 1 except that in Example 9, there were charged 65 parts by weight of 8-methoxycarbonyl-8-methyltetracyclo[4.4.0.1^2,5.1^7,10]-3-dodecene (DNM), 25 parts by weight of dicyclopentadiene (DCP) and 10 parts by weight of norbornene (NB) as monomers and 190 parts by weight of toluene to synthesize a polymer, and the charged amount equivalent to the solid component of the polymer was changed to 330 kg in the hydrogenation reaction. […] The maximum attained temperature during the hydrogenation reaction was 179° C. The theoretical value of generated heat was calculated from DNM=129.3 kcal/kg, DCP=452.3 kcal/kg and NB=319.3 kcal/kg.

[7] = hydrogen introduced at 100° C., 10 MPa, 165° C. for 3 hours

Compound | solubility to toluene at 20° C. [1] [% by weight] | hydrogenation rate of the hydrogenated polymer [2] [%] | hydrogenation rate of the main chain of the copolymer [3] [%] | hydrogenation rate of the unsaturated double bonds derived from the side chain of tricyclo[4.3.0.1^2,5]deca-3,8-diene [3] [%] | hydrogenation rate of the main chain of the copolymer [4] [%] | saturation solubility to toluene at 25° C. [1] [% by weight] | olefinic unsaturated bonds in the main chain hydrogenated (hydrogenation rate) [5, 7] [%] | saturation solubility to toluene ([1]; temperature not given) [% by weight] | olefinic unsaturated bonds in the main chain hydrogenated (hydrogenation rate) ([5]; hydrogen introduction temperature 150° C., 600 parts toluene, gelation inhibitor) [%] | olefinic unsaturated bonds in the main chain hydrogenated (hydrogenation rate) ([6]; hydrogen introduction temperature 100° C.) [%] | olefinic unsaturated bonds in the main chain hydrogenated (hydrogenation rate) ([6]; hydrogen introduction temperature 150° C., 700 parts toluene) [%]
RuH(OCOPh)(CO)(PPh3)2 [Example 1] | 0.5 | 99.99 |  |  |  |  |  |  |  |  | 
RuH(OCOPh-C8H17)(CO)(PPh3)2 [Example 3] | 5.0 | 99.90 |  |  |  |  |  |  |  |  | 
RuH(OCOPh-C5H11)(CO)(PPh3)2 [Example 2] | 1.0 | 99.95 | 99.97 | ≥ 99.99 | 99.93 |  |  |  |  |  | 
RuH(CO)[P(C6H5)]2(OCO-p-Ph-n-C5H13) |  |  |  |  |  | 5 | ≥ 99.9 |  |  |  | 
[C-]#[O+].[Cl][RuH].c1ccc(P(c2ccccc2)c2ccccc2)cc1.c1ccc(P(c2ccccc2)c2ccccc2)cc1.c1ccc(P(c2ccccc2)c2ccccc2)cc1 [RuHCl(CO)(PPh3)3, reference compound] | 0.03 | 99.75 |  |  | 99.30 | 0.05 | ≥ 99.9 | 0.05 | ≥ 99.9 | ≥ 99.9 | ≥ 99.9
